# Laboratory results from ChEMBL document CHEMBL1126512, “Synthesis and antitumor evaluation of water soluble taxol phosphates” (Bioorg Med Chem Lett, 1993).
# Experiments:
# [1] = tested on: Mus musculus; assay: Antitumor activity against M109 tumor murine lung carcinoma infected mice after ip administration using DMSO an water as vehicle at a dose of 25 mg/kg/inj; format: functional; conditions: route intraperitoneal
# [2] = Solubility was determined; value ranges from 6-7; format: physicochemical
# [3] = tested on: Mus musculus; assay: Antitumor activity against M109 tumor murine lung carcinoma infected mice after ip administration using DMSO an saline as vehicle at a dose of 50 mg/kg/inj; format: functional; conditions: route intraperitoneal
# [4] = tested on: Mus musculus; assay: Antitumor activity against M109 tumor murine lung carcinoma infected mice after ip administration using DMSO an water as vehicle at a dose of 25 mg/kg/inj; 1/6 mice cured; format: functional; conditions: route intraperitoneal
# [5] = Solubility was determined; format: physicochemical
# [6] = tested on: Mus musculus; assay: Antitumor activity against M109 tumor murine lung carcinoma infected mice after ip administration using DMSO an water as vehicle at a dose of 50 mg/kg/inj; format: functional; conditions: route intraperitoneal
# [7] = tested on: Mus musculus; assay: Antitumor activity against M109 tumor murine lung carcinoma infected mice after ip administration using DMSO an saline as vehicle at a dose of 25 mg/kg/inj; 1/6 mice cured; format: functional; conditions: route intraperitoneal
# [8] = tested on: Mus musculus; assay: Antitumor activity against M109 tumor murine lung carcinoma infected mice after ip administration using DMSO an water as vehicle at a dose of 10 mg/kg/inj; format: functional; conditions: route intraperitoneal
# [9] = tested on: Mus musculus; assay: Antitumor activity against M109 tumor murine lung carcinoma infected mice after ip administration using DMSO an saline as vehicle at a dose of 10 mg/kg/inj; format: functional; conditions: route intraperitoneal
# [10] = tested on: Mus musculus; assay: Antitumor activity against M109 tumor murine lung carcinoma infected mice after ip administration using DMSO an water as vehicle at a dose of 30 mg/kg/inj; format: functional; conditions: route intraperitoneal
# [11] = tested on: Mus musculus; assay: Antitumor activity against M109 tumor murine lung carcinoma infected mice after ip administration using DMSO an saline as vehicle at a dose of 30 mg/kg/inj; format: functional; conditions: route intraperitoneal
smiles,measurement,setting,value
CC(=O)O[C@H]1C(=O)[C@@]2(C)[C@H]([C@H](OC(=O)c3ccccc3)[C@]3(O)C[C@H](OC(=O)[C@H](OP(=O)([O-])[O-])[C@@H](NC(=O)c4ccccc4)c4ccccc4)C(C)=C1C3(C)C)[C@]1(OC(C)=O)CO[C@@H]1C[C@@H]2O.[Na+].[Na+],Max T/C,[1],140
CC(=O)O[C@@]12CO[C@@H]1C[C@H](O)[C@@]1(C)C(=O)[C@H](O)C3=C(C)[C@@H](OC(=O)[C@H](O)[C@@H](NC(=O)OC(C)(C)C)c4ccccc4)C[C@@](O)([C@@H](OC(=O)c4ccccc4)[C@H]21)C3(C)C.O.O.O [DOCETAXEL],solubility,[2],6 µg/mL
CC(=O)O[C@H]1C(=O)[C@@]2(C)[C@H]([C@H](OC(=O)c3ccccc3)[C@]3(O)C[C@H](OC(=O)[C@H](OP(=O)(OCc4ccccc4)OCc4ccccc4)[C@@H](NC(=O)c4ccccc4)c4ccccc4)C(C)=C1C3(C)C)[C@]1(OC(C)=O)CO[C@@H]1C[C@@H]2O,Max T/C,[3],107
CC(=O)O[C@H]1C(=O)[C@@]2(C)[C@H]([C@H](OC(=O)c3ccccc3)[C@]3(O)C[C@H](OC(=O)[C@H](O)[C@@H](NC(=O)c4ccccc4)c4ccccc4)C(C)=C1C3(C)C)[C@]1(OC(C)=O)CO[C@@H]1C[C@@H]2O [PACLITAXEL],Max T/C,[3],270
same,Max T/C,[4],240
same,solubility,[5],0.25 µg/mL
same,Max T/C,[6],270
same,Max T/C,[7],240
same,Max T/C,[8],190
same,Max T/C,[9],190
CC(=O)O[C@H]1C(=O)[C@]2(C)[C@@H](OP(=O)([O-])[O-])C[C@H]3OC[C@@]3(OC(C)=O)[C@H]2[C@H](OC(=O)c2ccccc2)[C@]2(O)C[C@H](OC(=O)[C@H](O)[C@@H](NC(=O)c3ccccc3)c3ccccc3)C(C)=C1C2(C)C.[Na+].[Na+],Max T/C,[10],123
CC(=O)O[C@H]1C(=O)[C@]2(C)[C@@H](OP(=O)([O-])[O-])C[C@H]3OC[C@@]3(OC(C)=O)[C@H]2[C@H](OC(=O)c2ccccc2)[C@]2(O)C[C@H](OC(=O)[C@H](OP(=O)([O-])[O-])[C@@H](NC(=O)c3ccccc3)c3ccccc3)C(C)=C1C2(C)C.[Na+].[Na+].[Na+].[Na+],Max T/C,[11],103
